Our source for the Kd values is article PMC9064607 (Biochemistry, 2022).

As a reminder, the Kd is the constant that tells how readily two partners part at equilibrium. Read a low Kd as tighter binding.

This experiment has as its target T1, Peptidylglycine monooxygenase (PHM) (Rattus norvegicus, UniProt P14925).
T1 sequence (P14925 42-356): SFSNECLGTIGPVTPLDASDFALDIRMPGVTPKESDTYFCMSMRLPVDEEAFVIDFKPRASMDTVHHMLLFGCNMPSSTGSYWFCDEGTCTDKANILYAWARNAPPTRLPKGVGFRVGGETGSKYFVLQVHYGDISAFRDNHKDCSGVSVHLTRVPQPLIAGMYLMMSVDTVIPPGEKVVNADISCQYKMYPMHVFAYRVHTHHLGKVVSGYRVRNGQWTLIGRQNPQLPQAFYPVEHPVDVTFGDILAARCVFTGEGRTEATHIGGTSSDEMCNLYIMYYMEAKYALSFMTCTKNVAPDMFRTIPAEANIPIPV
The experiment is described as follows: chemical-quench product formation versus ascorbate, fitted to a binding event. Type of experiment: biochemical.

The compound `O=C1O[C@H]([C@@H](O)CO)C(O)=C1O` [ascorbate] gave a Kd of 117 µM.
